Consider three compounds from patent US11357873B2, “Chiral cyclen compounds and their uses” (THE HONG KONG POLYTECHNIC UNIVERSITY, priority 2016, dated 2022).

Data set [1] is described as follows: Circularly polarized luminescence (CPL), dissymmetry factor glum. In kind it is physicochemical. Particulars: wavelength in parentheses in the cell. The protocol:
(§1) Steady-state room temperature photoluminescence measurements were performed with an Edinburgh Instrument FLSP920 spectrophotometer equipped with a Xe900 continuous xenon lamp, μF920 microsecond flash lamp and a single photon counting photomultiplier tube. Spectra were corrected with the bundled F900 software. Solution-state measurements were conducted using quartz curettes of 10 mm path length. CPL measurements were conducted on a custom built spectrometer^63 (in Durham University) consisting of a laser driven light source (Energetiq EQ-99 LDLS, spectral range 170 to 2100 nm) coupled to an Acton SP2150 monochromator (600 g/nm, 300 nm Blaze) that allows excitation wavelengths to be selected with a 6 nm FWHM band-pass. The collection of the emitted light was facilitated (90° angle set up, 1 cm path length quartz curette) by a Lock-In Amplifier (Hinds Instruments Signaloc 2100) and Photoelastic Modulator (Hinds Instruments PEM-90). The differentiated light was focused onto an Acton SP2150 monochromator (1200 g/nm, 500 nm Blaze) equipped with a high sensitivity cooled Photo Multiplier Tube (H10723-20 Extended red-multialkali PMT based photosensor (5V)). Spectra were recorded using a 5 spectral average sequence in the range of 570-720 nm with 0.5 nm spectral intervals and 500 μs integration time.

Data set [2] is described as follows: Stability of isomers on heating and storage by 1H NMR. The data set is classed as physicochemical. The source says:
In aqueous solution, the ratio of TSA/SA isomers of Eu(III) and Yb(III) complexes in DOTA-like systems can be easily determined by ^1H NMR as two well-defined sets of six resonances are observed for the diastereotopic protons in CH2CO and NCH2CH2N.^13 Although the Gd(III) complexes cannot be analyzed by NMR, their ratio of isomers are expected to be similar to those of the Eu(III) and Yb(III) complexes because the ionic radius of Gd(III) is similar to the ionic radius of Eu(III) and Yb(III).
The conformational properties of the lanthanide complexes were investigated by both HPLC and NMR spectroscopy. The ^1H NMR spectra of the four europium chiral DOTA-based complexes are compared in FIG. 3. […] In the cases of [EuL3]^− and [EuL4]^−, the twisted antiprismatic isomers were more dominant, with the ratio of 6.52 for [EuL3]^− and 13.50 for [EuL4]^− observed.
The stability of the complexes toward racemization over time was also monitored by ^1H NMR (FIG. 20). […] Nevertheless, the original set of peaks existed predominately when the pD was adjusted from 6.0 to 7.5 and further heated for 12 h at 90° C. It can be observed that while the purity of the ligands may not be highly satisfactory, pure complexes could be obtained by HPLC separation after complexation. This phenomenon indicates the purification of DOTA-based ligands should be handled with care.

Data set [3] in a line: Absorption and photoluminescence (quantum yield, lifetime, q). More on the design: λabs(max): unit not given here. In kind it is physicochemical. The protocol: as §1, with “Absorption spectra of complexes were measured with HP UV-8453 spectrophotometer. Steady-state” for “Steady-state”, “time. The recorded CPL spectrum underwent a 25% Fourier transformation smoothening protocol using Origin 8.0 Software (Origin Labs) to enhance appearance (all calculations were carried out using raw spectral data).” for “time.”
The shift in absorption is caused by electronic communication between the electropositive lanthanide center and the chromophore. […] These are not observed for 11, however, as we believe the steric effect of the planar phenyl ring of the benzyl group could not be alleviated by appropriate rotation, whereas that of the isobutyl group could.
The luminescence quantum yields of the complexes are decent in water and HEPES solution, although they are much higher in DMSO, due to the nonradiative quenching by O—H oscillators of water molecules in the second coordination sphere (Table 6). The intrinsic quantum yields^61—a calculated value evaluating the quantum yield of Eu(III) via direct metal excitation—of the complexes are calculated, and, as expected, the values are very similar, except for 10. The higher value corroborates with the shift in absorption maximum, for which we believe the reason is due to a shorter europium—chromophore distance and better interaction. On the other hand, the sensitization efficiencies of the complexes vary. […] The relatively remarkable ηsens of 13 is attributed to its structural rigidity, as both the tetraaza backbone and the acetate arms are modified with a chrial substituent, i.e., double chirality. The double chirality is also attributed for the increase in luminescence quantum yield compared to that of 12a/12b.

Data set [4] in a line: Kinetic inertness: competitive titration with DTPA, UPLC-HRMS. The data set is classed as physicochemical. Conditions: 1000 eq. of DTPA, pH 5.0, 0.1 M ammonium acetate, shaken 7 days; for decomplexation in presence of competitive ligand DTPA: room temperature. On the procedure:
Experimental procedure: Stock solution of [GdL1]^− and [GdL2]^− were prepared in 0.1 M ammonium acetate, 0˜1000 equivalents of DTPA were added into the solutions, the final concentrations of the gadolinium complexes were 14.8 mM for [GdL1]^− and 21.6 mM for [GdL2]^− (6 mL). The mixtures were shaken at room temperature, and samples of 1 ml of solutions were taken out for UPLC-HRMS analysis on day 3 and day 7.
Results: Competitive bath titrations were performed with the Gd analogues, [GdL1]^− and [GdL2]^−, in the presence of 0-1000 equivalents of competitive ligand DTPA (pentetic acid or diethylenetriaminepentaacetic acid) in 0.1 M ammonium acetate solution. After being shaken for 7 days (1000 eq. of DTPA, pH 5.0), the mixtures were analyzed by UPLC-HRMS. […] This finding is of significant importance for future use of the complexes in biomedical applications.

Data set [5] can be described thus: Relaxivity (r1, r2) measurement of Gd(III) complexes in water, BSA and human plasma. In kind it is physicochemical. More on the design: r1 Human Plasma (1.5 T): unit not given beside the values. Particulars: 37° C. On the procedure: This is very important because the huge difference in the inner-sphere coordinated water exchange rate between the two isomers is a key factor for applications, for example, as MRI contrast agents. To show their potential value, the two diastereomers of [GdL2]^− ([GdL2A]^− and [GdL2B]^−) were separated and their relaxivities were measured. The relaxivities of [GdL1]^−, [GdL2]^−, [GdL2A]^−, [GdL2B]^− and [GdDOTA]^− in water at different magnetic strengths (1.5 T and 11.7 T) were compared, with or without the presence of BSA and human plasma (1.5 T) (Table 1). It is clearly seen that the complexes of [GdL1]^−, [GdL2A]^− and [GdL2B]^− have relaxivity properties similar to that of the [GdDOTA]^− complex.

The target in the next data set is BSA (Bos taurus, UniProt P02769). Briefly: Protein binding with BSA determined by ICP-MS. In kind it is in vitro ADME.
Another data set concerns human plasma. As to the kind of experiment: Protein binding with human plasma determined by ICP-MS. In kind it is in vitro ADME.
Where [6] appears, read: ICP-MS, summary of Tables 2 and 3.
Where [7] appears, read: Table 2, sample A, conc. before 0.32286251 mM.
[8] abbreviates: Table 2, sample B, conc. before 0.15917209 mM.
Where [9] appears, read: Table 2, sample C, conc. before 0.02070731 mM.
The mark [10] stands for this setting: Table 3, sample A, conc. before 0.3714242 mM.
[11] abbreviates: Table 3, sample B, conc. before 0.1551093 mM.
The mark [12] stands for this setting: Table 3, sample C, conc. before 0.0251512 mM.
[13] abbreviates: Table 2, sample A, conc. before 0.3167862 mM.
The mark [14] stands for this setting: Table 2, sample B, conc. before 0.162104 mM.
Setting [15] is: Table 2, sample C, conc. before 0.021152 mM.
Where [16] appears, read: Table 3, sample A, conc. before 0.3699171 mM.
[17] abbreviates: Table 3, sample B, conc. before 0.134016 mM.
Where [18] appears, read: Table 3, sample C, conc. before 0.0189002 mM.

Molecules are shown by their SMILES.

Chain of BSA (P02769 25-607): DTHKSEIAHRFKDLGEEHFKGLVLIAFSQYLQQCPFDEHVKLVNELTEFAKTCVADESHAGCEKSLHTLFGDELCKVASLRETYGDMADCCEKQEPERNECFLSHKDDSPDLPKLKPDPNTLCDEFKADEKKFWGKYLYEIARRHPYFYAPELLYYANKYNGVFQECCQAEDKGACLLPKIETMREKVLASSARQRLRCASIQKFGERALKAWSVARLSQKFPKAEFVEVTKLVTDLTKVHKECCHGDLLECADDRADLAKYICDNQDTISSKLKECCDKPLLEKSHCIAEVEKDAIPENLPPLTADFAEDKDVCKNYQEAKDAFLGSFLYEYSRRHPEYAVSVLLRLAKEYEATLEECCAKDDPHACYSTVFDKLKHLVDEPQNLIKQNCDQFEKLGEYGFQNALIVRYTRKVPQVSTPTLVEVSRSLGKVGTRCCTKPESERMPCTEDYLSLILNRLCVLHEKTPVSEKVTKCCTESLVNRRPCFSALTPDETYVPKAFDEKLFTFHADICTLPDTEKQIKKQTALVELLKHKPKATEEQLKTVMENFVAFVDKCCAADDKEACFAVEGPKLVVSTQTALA

With `CC[C@@H]1CN(CC(=O)[O-])[C@H](CC)CN(Cc2cc(C#Cc3c(OC)cc(OC)cc3OC)cc(P(C)(=O)[O-])n2)[C@H](CC)CN(CC(=O)[O-])[C@H](CC)CN1CC(=O)[O-].[Eu+3]` [Complex 9], in data set [1] (DMSO), the “glum ΔJ = 1 (λ) DMSO” value is “+0.17 (591)” and the “glum ΔJ = 3 (λ) DMSO” value is “+0.13 (657)”. In data set [1] (H2O), the “glum ΔJ = 1 (λ) H2O” value is “+0.12 (591)” and the “glum ΔJ = 3 (λ) H2O” value was “+0.21 (653)”. Besides, the “1H NMR spectrum after storage (stability toward racemization)” value in data set [2] (9 months at room temperature, pD 6.0, D2O) is “consistent after 9 months of storage”. In data set [2] (heating at 90° C.), the “1H NMR spectrum upon heating (stability toward racemization)” value is “a new set of peaks appeared”. Moreover, the “R, I(5D0 → 7F2)/I(5D0 → 7F1)” value in data set [3] (asymmetry ratio, room temperature, 10 in MeOH, 11 in DMSO) was determined as 2.44. In data set [3] (from lifetimes in H2O and D2O, first value of cell), the “q (Parker's)” value worked out at 0.02. Besides, the “q (Horrocks')” value in data set [3] (from lifetimes in H2O and D2O, second value of cell) is 0.05. For the same compound, in data set [3] (intrinsic quantum yield, calculated value), the “ΦEuEu (%)” value is 28.1%. In addition, the “τD2O/MeOD” value in data set [3] (luminescence lifetime, 5D0 → 7F2 transition, D2O (MeOD for 10)) was determined as 1.77 ms. Further, in data set [3] (luminescence lifetime, 5D0 → 7F2 transition, H2O (MeOH for 10)), the “τH2O/MeOH” value is on record as 1.20 ms. Also, the “ΦDMSO (%)” value in data set [3] (luminescence quantum yield in DMSO) was 53.0%. Also, the “ΦH2O/MeOH (%)” value in data set [3] (luminescence quantum yield relative to quinine sulfate in 0.1M H2SO4, H2O (MeOH for 10, insoluble in H2O)) is given as 14.9%. Besides, in data set [3] (luminescence quantum yield, 0.1M HEPES buffer, pH 7.4), the “ΦHEPES (%)” value was 14.3%. Besides, the “λabs(max)” value in data set [3] (room temperature, 10 measured in MeOH, 11 in DMSO) stood at 356. Also, the “ηsens (%)” value in data set [3] (sensitization efficiency, calculated according to ref 61) is 53.0%.

Turning to `CC[C@H]1CN(CC(=O)[O-])[C@@H](CC)CN(CC(=O)[O-])[C@@H](CC)CN(CC(=O)[O-])[C@@H](CC)CN1CC(=O)[O-].[Gd+3]` [[GdL2]^−], in data set [4], the “ratio of TSA/SA after DTPA challenge” value is given as “remained the same” and the “decomplexation in presence of competitive ligand DTPA” value is reported as “No trace of any decomplexation”. In data set [5], the “r1 4.5 w/v BSA (1.5 T)” value came to 3.6, the “r1 Human Plasma (1.5 T)” value is recorded as 2.9, the “r1 Water (1.5 T)” value was 2.6 and the “r1 Water (11.7 T)” value came out at 3.1.

In the case of `C[C@H]1CN(CC(=O)[O-])[C@@H](C)CN(CC(=O)[O-])[C@@H](C)CN(CC(=O)[O-])[C@@H](C)CN1CC(=O)[O-].[Gd+3]` [[GdL1]^−], in data set [4], the “ratio of TSA/SA after DTPA challenge” value is listed as “remained the same”. Besides, the “decomplexation in presence of competitive ligand DTPA” value in data set [4] is “No trace of any decomplexation”. Moreover, in data set [5], the “r1 4.5 w/v BSA (1.5 T)” value was 4.1. Further, the “r1 Human Plasma (1.5 T)” value in data set [5] is reported as 3.9. In addition, the “r1 Water (1.5 T)” value in data set [5] was 3.4. The “r1 Water (11.7 T)” value in data set [5] stood at 2.8. Besides, the “complex binding with BSA” value on BSA (setting [6]) is reported as “less than 5%”. In addition, the “% bound In BSA” value at BSA (setting [7]) is “(1.3% bound)”; on BSA (setting [8]), “(1.5% bound)”; on BSA (setting [9]) it was “(3.7% bound)”; at BSA (setting [10]), “(1.9% bound)”; at BSA (setting [11]) it was “(3.4% bound)”; at BSA (setting [12]) it was “(2.2% bound)”. The “Conc. (mM) In BSA after” value on BSA (setting [7]) was found to be 0.3185 mM; on BSA (setting [8]), 0.1568 mM; at BSA (setting [9]) it was 0.02 mM; on BSA (setting [10]) it was 0.3641 mM; on BSA (setting [11]) it was 0.1498 mM; at BSA (setting [12]), 0.02458 mM. In the data set with human plasma (setting [6]), the “complex binding with human plasma” value is “less than 5%”. For the same compound, the “% bound In Plasma” value was “(2.2% bound)” in the data set on human plasma (setting [13]); “(1.8% bound)” in the data set on human plasma (setting [14]); “(4.7% bound)” in the data set on human plasma (setting [15]); “(2.6% bound)” in the data set on human plasma (setting [16]); “(2.2% bound)” in the data set with human plasma (setting [17]); “(3.9% bound)” in the data set on human plasma (setting [18]). In addition, the “Conc. (mM) In Plasma after” value in the data set on human plasma (setting [13]) is on record as 0.3097 mM; in the data set with human plasma (setting [14]), 0.1592 mM; in the data set with human plasma (setting [15]), 0.02015 mM; with human plasma (setting [16]) it was 0.3602 mM; in the data set on human plasma (setting [17]) it was 0.1311 mM; in the data set with human plasma (setting [18]), 0.01816 mM.
